In the NIST ThermoML archive (doi:10.1021/je700152c):

Experiment: molar heat capacity at saturation pressure

CCCCn1cc[n+](C)c1.Cc1ccc(S(=O)(=O)[O-])cc1 [1-butyl-3-methylimidazolium tosylate]
Details	molar heat capacity [J/K/mol]
283.38 K, Crystal 1	400.74
283.57 K, Crystal 1	401.36
284.36 K, Metastable crystal	414.71
285.22 K, Crystal 1	405.4
285.23 K, Crystal 1	405.09
285.41 K, Crystal 1	405.71
286.18 K, Metastable crystal	418.44
287.05 K, Crystal 1	409.74
287.07 K, Crystal 1	409.12
287.24 K, Crystal 1	410.37
288 K, Metastable crystal	422.47
288.87 K, Crystal 1	414.71
288.9 K, Crystal 1	414.09
289.06 K, Crystal 1	415.64
289.81 K, Metastable crystal	426.82
290.68 K, Crystal 1	419.06
290.72 K, Crystal 1	418.75
290.87 K, Crystal 1	419.99
291.62 K, Metastable crystal	431.16
292.49 K, Crystal 1	423.71
292.53 K, Crystal 1	423.4
292.67 K, Crystal 1	424.02
293.42 K, Metastable crystal	435.51
294.29 K, Crystal 1	427.13
294.33 K, Crystal 1	428.06
294.47 K, Crystal 1	427.44
295.21 K, Metastable crystal	439.86
296.09 K, Crystal 1	431.47
296.13 K, Crystal 1	432.72
296.27 K, Crystal 1	432.09
296.99 K, Metastable crystal	445.13
297.87 K, Crystal 1	436.13
297.92 K, Crystal 1	437.06
298.05 K, Crystal 1	436.75
298.77 K, Metastable crystal	450.1
299.66 K, Crystal 1	440.79
299.71 K, Crystal 1	442.65
299.83 K, Crystal 1	442.03
300.21 K, Crystal 1	440.48
300.54 K, Metastable crystal	455.38
301.54 K, Crystal 1	446.68
301.6 K, Crystal 1	447.93
301.72 K, Crystal 1	447.62
302.1 K, Crystal 1	445.44
302.41 K, Metastable crystal	461.89
303.54 K, Crystal 1	452.58
303.6 K, Crystal 1	453.2
303.71 K, Crystal 1	453.82
304.1 K, Crystal 1	451.03
304.39 K, Metastable crystal	469.03
305.52 K, Crystal 1	458.79
305.59 K, Crystal 1	460.34
305.69 K, Crystal 1	460.03
306.09 K, Crystal 1	457.24
306.36 K, Metastable crystal	476.79
307.5 K, Crystal 1	465.93
307.57 K, Crystal 1	467.79
307.67 K, Crystal 1	467.17
308.07 K, Crystal 1	463.76
308.32 K, Metastable crystal	485.8
309.47 K, Crystal 1	473.69
309.54 K, Crystal 1	474.93
309.64 K, Crystal 1	475.24
310.04 K, Crystal 1	471.52
310.26 K, Metastable crystal	496.04
311.42 K, Crystal 1	482.69
311.49 K, Crystal 1	484.55
311.59 K, Crystal 1	484.24
311.76 K, Metastable crystal	501.63
311.99 K, Crystal 1	479.59
313.37 K, Crystal 1	492.63
313.44 K, Crystal 1	494.8
313.53 K, Crystal 1	493.56
313.67 K, Metastable crystal	515.91
313.94 K, Crystal 1	489.21
315.3 K, Crystal 1	503.49
315.37 K, Crystal 1	505.97
315.46 K, Crystal 1	503.18
315.56 K, Metastable crystal	532.05
315.87 K, Crystal 1	499.45
317.22 K, Crystal 1	514.97
317.29 K, Crystal 1	518.39
317.39 K, Crystal 1	512.18
317.42 K, Metastable crystal	550.67
317.78 K, Crystal 1	512.49
319.11 K, Crystal 1	529.25
319.18 K, Crystal 1	534.53
319.26 K, Metastable crystal	573.33
319.29 K, Crystal 1	524.29
319.67 K, Crystal 1	527.08
320.98 K, Crystal 1	545.71
321.05 K, Crystal 1	553.47
321.06 K, Metastable crystal	600.03
321.17 K, Crystal 1	538.26
321.53 K, Crystal 1	544.77
322.82 K, Crystal 1	565.88
322.82 K, Metastable crystal	633.24
322.89 K, Crystal 1	575.51
323.03 K, Crystal 1	555.95
323.37 K, Crystal 1	566.5
324.53 K, Metastable crystal	675.15
324.63 K, Crystal 1	590.72
324.69 K, Crystal 1	602.51
324.85 K, Crystal 1	578.61
325.17 K, Crystal 1	593.51
326.19 K, Metastable crystal	727.92
326.41 K, Crystal 1	621.45
326.45 K, Crystal 1	635.42
326.64 K, Crystal 1	607.48
326.92 K, Crystal 1	628.28
328.13 K, Crystal 1	660.56
328.17 K, Crystal 1	676.7
328.38 K, Crystal 1	644.42
328.62 K, Crystal 1	675.15
329.79 K, Crystal 1	710.85
329.82 K, Crystal 1	728.23
330.07 K, Crystal 1	691.29
330.24 K, Crystal 1	740.02
340.93 K, Metastable crystal	542.91
342.74 K, Crystal 1	648.45
342.82 K, Liquid	542.91
343.34 K, Crystal 1	571.47
343.81 K, Crystal 1	550.05
343.97 K, Liquid	543.84
344.54 K, Liquid	545.4
344.72 K, Liquid	544.77
345.34 K, Liquid	544.46
346.06 K, Liquid	544.77
346.43 K, Liquid	546.33
346.46 K, Liquid	546.64
346.61 K, Liquid	546.02
347.35 K, Liquid	545.71
348.14 K, Liquid	546.02
348.31 K, Liquid	547.57
348.49 K, Liquid	547.26
348.72 K, Liquid	547.57
348.77 K, Liquid	547.57
350.2 K, Liquid	549.43
350.6 K, Liquid	549.12
350.64 K, Liquid	549.12
352.08 K, Liquid	550.98
352.48 K, Liquid	550.36
352.5 K, Liquid	550.36
353.97 K, Liquid	552.22
354.36 K, Liquid	551.6
354.37 K, Liquid	551.91
355.86 K, Liquid	553.47
356.24 K, Liquid	553.16
356.25 K, Liquid	553.16
357.74 K, Liquid	555.02
358.11 K, Liquid	554.71
358.12 K, Liquid	554.71
359.64 K, Liquid	556.26
359.97 K, Liquid	555.95
360 K, Liquid	555.95
361.53 K, Liquid	557.81
361.84 K, Liquid	557.5
361.88 K, Liquid	557.5
363.42 K, Liquid	559.05
363.75 K, Liquid	558.74
365.3 K, Liquid	560.3
365.62 K, Liquid	559.98
367.19 K, Liquid	561.85
367.5 K, Liquid	561.54
